Values joined by “and” are separate entries in the source; they are usually repeats but may differ in a detail not shown here. Identical values can stand only once. Like-named read-outs stand apart in the source and are kept apart here.
Target: telomerase (Homo sapiens, UniProt O14746)
Test: Telomerase repeat processivity IC50: modified dNTP titrated into reactions with all four natural dNTPs
Assay type: biochemical
Set-up: made in house; anti-FLAG immunopurification, eluted with 3xFLAG peptide
Conditions: for LogIC50 (processivity): concentration in μM
Source text: In order to better understand the ability of modified dNTPs to compete with natural dNTPs for telomerase utilization, we added modified dNTPs to reactions containing all four natural dNTPs. […] The calculated IC50 determines the concentration required to reduce repeat processivity in the bulk reactions by half. However, it is important to note that bulk experiments cannot distinguish effects on individual telomeres, since extended telomeres mask unextended telomeres. Incorporation of a chain terminator during any step will terminate extension of the affected telomere, and just five critically short telomeres are sufficient to trigger senescence. Therefore, repeat processivity IC50 values are not necessarily an indicator of the inhibitory potency, but provide information on selectivity for modified dNTPs compared to natural dNTPs. […] The ability to purify sufficient quantities of tcTERT enables characterization of the catalytic nucleotide addition by pre-steady-state single turnover kinetics using a defined DNA–RNA primer–template substrate. The catalytic efficiency of incorporating a single dNTP is measured by dividing the observed nucleotide incorporation rate constant, kpol, by the equilibrium dissociation constant for dNTP binding to the tcTERT–primer–template complex (Kd)[44].
The reactions were started by the addition of 3 μl of immunopurified telomerase eluent, incubated at 37 °C for 1 h, then terminated with 2 μl of […] and heat inactivated at 65 °C for 20 min. An equal volume of loading buffer (94% formamide, 0.1× TBE, 0.1% bromophenol blue, 0.1% xylene cyanol) was added to the reaction eluent. The samples were heat denatured for 10 min at 100 °C and loaded onto a 14% denaturing acrylamide gel (7 M urea, 1× TBE) and electrophoresed for 90 min at constant 38 W. Samples were imaged using a Typhoon phosphorimager (GE Healthcare). Percent primer extension was calculated with ImageQuant TL 8.2 by measuring the intensity of each product band and dividing by the total radioactivity in the lane or total products, as indicated in the figure legends.
The processivity was calculated as described[40],[67]. Repeat processivity from the direct telomerase extension assays was calculated as R1/2 (equivalent to the half-time for decay in an exponential time course), which represents the median length of DNA product formed, expressed in terms of number of telomere repeats. First, the total volume counts for each product band extend by one or more telomere repeats were obtained using Image Quant TL. The volume counts were then normalized by dividing by the number of radiolabeled guanosines incorporated into the extended products based on the number of repeats added, termed corrected volume (corr vol). The “percent left behind” (%LB) was calculated for each product band by summing the counts for that product band and for every product band below (shorter products), divided by the total counts for the lane, and then multiplied by 100. The natural log of (100−%LB) was calculated and then plotted vs. repeat number for each product length. A linear regression line was fit to the data to determine the slope of the line. The R1/2 value was calculated by dividing −ln(2) by the slope of each fitted line (R1/2 = −ln(2)/slope).
Supplementary Fig 8. IC50 values for telomerase processivity inhibition. Telomerase reactions were conducted with cellular relevant concentrations of all four natural dNTPs and increasing concentrations of the modified dNTP analog from 0 to 10,000 μM to calculate. (a) The natural log of (100-%LB) was plotted vs repeat number. A straight line was fit to the data and the R1/2 value was calculated by dividing –ln(2) by the slope of each line. Plots shown from one experiment are […]

[1] = cellular relevant natural dNTPs, modified dNTP titrated 0 to 10,000 μM, based on repeat processivity, mean ± SD, read-out: Telomerase processivity IC50
[2] = log of processivity IC50 (concentration in μM), Supplementary Fig 8b, read-out: Log IC50 (converted)
[3] = 6-thio-dGTP, per replicate N1-N3

Sequence of telomerase (O14746 whole entry): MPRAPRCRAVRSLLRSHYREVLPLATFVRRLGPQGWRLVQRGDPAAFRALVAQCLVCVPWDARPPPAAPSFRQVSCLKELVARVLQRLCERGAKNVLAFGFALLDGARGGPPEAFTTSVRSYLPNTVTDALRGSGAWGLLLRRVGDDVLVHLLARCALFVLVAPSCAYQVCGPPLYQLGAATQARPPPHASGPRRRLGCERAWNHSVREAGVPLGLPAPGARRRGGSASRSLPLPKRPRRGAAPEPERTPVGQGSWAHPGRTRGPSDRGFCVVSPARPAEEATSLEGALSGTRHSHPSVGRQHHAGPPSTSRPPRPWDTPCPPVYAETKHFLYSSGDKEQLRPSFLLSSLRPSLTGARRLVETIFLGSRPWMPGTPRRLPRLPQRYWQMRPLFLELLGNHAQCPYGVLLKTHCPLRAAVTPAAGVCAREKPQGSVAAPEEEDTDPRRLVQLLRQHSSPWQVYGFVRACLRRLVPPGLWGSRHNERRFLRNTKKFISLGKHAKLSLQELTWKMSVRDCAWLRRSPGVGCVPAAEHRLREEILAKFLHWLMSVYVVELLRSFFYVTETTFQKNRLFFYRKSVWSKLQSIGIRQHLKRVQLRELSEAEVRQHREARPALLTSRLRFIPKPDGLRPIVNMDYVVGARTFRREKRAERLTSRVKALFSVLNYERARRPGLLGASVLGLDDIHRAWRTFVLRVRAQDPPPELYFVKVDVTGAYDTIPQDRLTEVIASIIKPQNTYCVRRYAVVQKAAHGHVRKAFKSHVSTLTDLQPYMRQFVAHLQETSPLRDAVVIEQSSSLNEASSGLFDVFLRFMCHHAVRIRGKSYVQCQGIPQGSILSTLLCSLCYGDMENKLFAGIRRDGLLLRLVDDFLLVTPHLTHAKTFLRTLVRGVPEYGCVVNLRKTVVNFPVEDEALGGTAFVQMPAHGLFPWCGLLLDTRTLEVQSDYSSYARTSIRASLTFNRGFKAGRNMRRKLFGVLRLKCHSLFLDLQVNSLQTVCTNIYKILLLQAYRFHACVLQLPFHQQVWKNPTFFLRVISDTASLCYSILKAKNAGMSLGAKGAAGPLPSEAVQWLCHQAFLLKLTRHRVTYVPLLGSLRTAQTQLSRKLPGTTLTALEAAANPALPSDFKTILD

## Nc1nc(O)nc2c1ncn2C1CC(O)C(COP(=O)(O)OP(=O)(O)OP(=O)(O)O)O1 (stereo not drawn) [2-OH-dATP]
2-OH-dATP 31μM
  YIntercept (line fit of ln(100-%LB) vs # telomere repeats): 3.86 and 4.26 and 3.87
2-OH-dATP 31μM, telomere repeat 1
  ln(100-%LB): 3.80 and 4.29 and 3.78
2-OH-dATP 31μM, telomere repeat 2
  ln(100-%LB): 3.30 and 3.65 and 3.08
2-OH-dATP 31μM, telomere repeat 3
  ln(100-%LB): 2.75 and 3.04 and 2.41
2-OH-dATP 31μM, telomere repeat 4
  ln(100-%LB): 2.47 and 2.74 and 2.04
2-OH-dATP 31μM, telomere repeat 5
  ln(100-%LB): 2.09 and 2.42 and 1.67
2-OH-dATP 31μM, telomere repeat 6
  ln(100-%LB): 1.74 and 2.03 and 1.15
2-OH-dATP 31.25 μM
  Processivity R 1/2: 2.08 and 3.03 and 1.6
2-OH-dATP 62.5 μM
  Processivity R 1/2: 1.82 and 1.19 and 1.25
2-OH-dATP 250μM
  Processivity R 1/2: 0.71 and 1.05 and 0.94
  YIntercept (line fit of ln(100-%LB) vs # telomere repeats): 4.34 and 4.78 and 4.14
2-OH-dATP 250μM, telomere repeat 1
  ln(100-%LB): 3.46 and 4.32 and 3.82
2-OH-dATP 250μM, telomere repeat 2
  ln(100-%LB): 2.39 and 3.46 and 2.75
2-OH-dATP 500μM
  Processivity R 1/2: 0.82 and 0.52 and 1.02
  YIntercept (line fit of ln(100-%LB) vs # telomere repeats): 3.92 and 4.75 and 4.04
2-OH-dATP 500μM, telomere repeat 1
  ln(100-%LB): 3.41 and 4.41 and 3.82
2-OH-dATP 500μM, telomere repeat 2
  ln(100-%LB): 2.30 and 3.46 and 2.66
2-OH-dATP 750μM
  YIntercept (line fit of ln(100-%LB) vs # telomere repeats): 4.21 and 5.17 and 4.34
2-OH-dATP 750μM, telomere repeat 1
  ln(100-%LB): 2.99 and 4.03 and 3.90
2-OH-dATP 1000μM
  YIntercept (line fit of ln(100-%LB) vs # telomere repeats): 4.31 and 5.20 and 4.71
2-OH-dATP 1000μM, telomere repeat 1
  ln(100-%LB): 2.98 and 4.07 and 3.49
2-OH-dATP 1500μM, telomere repeat 2
  ln(100-%LB): 0.48
2-OH-dATP 2000 μM
  Processivity R 1/2: 0
2-OH-dATP, mean of N1-N3, SD 66.28, read-out: Mean IC50 (processivity R 1/2)
  IC50: 103 µM
2-OH-dATP, per replicate N1-N3
  Bottom (best-fit, processivity R 1/2 vs log concentration): 0.09 and -0.00587 and 0.62
  HillSlope (processivity): -1.28 and -0.83 and -0.032
  Span (best-fit, processivity R 1/2 vs log concentration): 2.29 and 2.84 and 1.84
  Top (best-fit, processivity R 1/2 vs log concentration): 2.38 and 2.84 and 2.47
  LogIC50 (processivity): 2.24 and 1.99 and 1.60
2-OH-dATP, per replicate N1-N3, read-out: IC50 (processivity R 1/2)
  IC50: 172 µM and 97 µM and 39.4 µM
[1]
  IC50: 103 ± 66 µM
[2]
  IC50: 126 µM

## Nc1nc2c(ncn2C2CC(O)C(COP(=O)(O)OP(=O)(O)OP(=O)(O)O)O2)c(=S)[nH]1 (stereo not drawn) [6-thio-dGTP]
6-thio-dGTP 0.625μM
  Processivity R 1/2: 4.12 and 2.32 and 3.78
  YIntercept (line fit of ln(100-%LB) vs # telomere repeats): 2.91 and 3.25 and 3.64
6-thio-dGTP 0.625μM, telomere repeat 1
  ln(100-%LB): 3.70 and 3.69 and 3.62
6-thio-dGTP 0.625μM, telomere repeat 2
  ln(100-%LB): 3.11 and 3.16 and 3.05
6-thio-dGTP 0.625μM, telomere repeat 3
  ln(100-%LB): 2.56 and 2.68 and 2.52
6-thio-dGTP 0.625μM, telomere repeat 4
  ln(100-%LB): 2.29 and 2.48 and 2.27
6-thio-dGTP 0.625μM, telomere repeat 5
  ln(100-%LB): 2.03 and 2.29 and 2.05
6-thio-dGTP 0.625μM, telomere repeat 6
  ln(100-%LB): 1.75 and 2.06 and 1.79
6-thio-dGTP 0.625μM, telomere repeat 7
  ln(100-%LB): 1.47 and 1.85 and 1.49
6-thio-dGTP 0.625μM, telomere repeat 8
  ln(100-%LB): 1.23 and 1.67 and 1.26
6-thio-dGTP 0.625μM, telomere repeat 9
  ln(100-%LB): 0.98 and 1.45 and 0.96
6-thio-dGTP 0.625μM, telomere repeat 10
  ln(100-%LB): 0.71 and 1.24 and 0.68
6-thio-dGTP 10μM
  YIntercept (line fit of ln(100-%LB) vs # telomere repeats): 5.12 and 3.95 and 4.44
6-thio-dGTP 10μM, telomere repeat 1
  ln(100-%LB): 3.39 and 3.57 and 3.48
6-thio-dGTP 10μM, telomere repeat 2
  ln(100-%LB): 1.78 and 2.70 and 1.99
6-thio-dGTP 10μM, telomere repeat 6
  ln(100-%LB): 0.15
6-thio-dGTP 10μM, telomere repeat 7
  ln(100-%LB): -0.27
6-thio-dGTP 10μM, telomere repeat 8
  ln(100-%LB): -0.68
6-thio-dGTP 10μM, telomere repeat 9
  ln(100-%LB): -1.63
6-thio-dGTP, mean of N1-N3, SD 1.45, read-out: Mean IC50 (processivity R 1/2)
  IC50: 5.48 µM
[3]
  Bottom (best-fit, processivity R 1/2 vs log concentration): 0.3229 and 0.05037 and -0.0895
  HillSlope (processivity): -2.993 and -0.7699 and -0.9281
  Span (best-fit, processivity R 1/2 vs log concentration): 3.504 and 3.529 and 1.482
  Top (best-fit, processivity R 1/2 vs log concentration): 3.827 and 3.579 and 1.393
  LogIC50 (processivity): 0.8984 and 0.6519 and 0.682
6-thio-dGTP, per replicate N1-N3, read-out: IC50 (processivity R 1/2)
  IC50: 4.49 µM and 4.81 µM
[1]
  IC50: 5 ± 2 µM
[2]
  IC50: 5.01 µM
